# Assay results published in patent US5449692A, “Substituted (arylalkylaminobenzyl) aminopropionamide derivatives and process for their preparation” (Farmitalia Carlo Erba S.r.l., priority 1993, dated 1995).
# Where a name gives a salt, the structure may show the parent alone.
# Experiments:
# [1] = antagonism of maximal electroshock seizures (MES); type: in vivo; conditions: MES test; read-out: MES - ED50 (effective dose in 50% of treated animals)
# [2] = in vivo
# Procedure: The neurotoxicity of the compounds and of the reference anticonvulsants was assessed with the rotorod test (Dunan and Miye, J. Am. Pharm. Ass. Sci. Ed., 1957, 46, 208; Kinnard et al. J. Pharmacol. Exp. Ther. 1957, 121, 354; Horowitz, Nature, 1963, 200, 369).
# For instance, following Table 1 summarizes the activity and neurotoxicity data obtained in the MES test and in the rotorod test, respectively, for a representative group of compounds according to the present invention, in comparison with the prior art compound 2-(4-benzyl-aminobenzyl)aminopropanamide, dihydrochloride (internal code FCE 26749) which is known from WO-90/14334.
# TD50 means toxic dose in 50% of treated animals
structure (smiles),measurement,setting,value
"CC(NCc1ccc(NCc2ccccc2)cc1)C(N)=O (stereo not drawn) [FCE 26749, 2-(4-benzyl-aminobenzyl)aminopropanamide, dihydrochloride, reference compound]",ED50,[1],9.5 mg/kg
same,TD50,[2],217 mg/kg
same,selectivity ratio,[2],23
"C[C@H](NCc1ccc(NCc2cccc(F)c2)cc1)C(N)=O [FCE 27232, 2-[4-(3-fluorobenzyl)aminobenzyl]aminopropanamide, dihydrochloride]",ED50,[1],6.4 mg/kg
same,TD50,[2],516 mg/kg
same,selectivity ratio,[2],81
"CC(NCc1ccc(NCc2ccc(Cl)cc2)cc1)C(N)=O.Cl.Cl (stereo not drawn) [FCE 28622, 2-[4-(4-chlorobenzyl)aminobenzyl]aminopropanamide, dihydrochloride]",ED50,[1],18.7 mg/kg
same,TD50,[2],1640 mg/kg
same,selectivity ratio,[2],88
"CC(NCc1ccc(NCCc2ccccc2)cc1)C(N)=O.Cl.Cl (stereo not drawn) [FCE 28623, 2-[4-(2-phenylethyl)aminobenzyl]aminopropanamide, dihydrochloride]",ED50,[1],17.1 mg/kg
same,TD50,[2],917 mg/kg
same,selectivity ratio,[2],54
"CC(NCc1ccc(NCc2ccc(Br)cc2)cc1)C(N)=O.Cl.Cl (stereo not drawn) [FCE 28639, 2-[4-(4-bromobenzyl)aminobenzyl]aminopropanamide, dihydrochloride]",ED50,[1],29.1 mg/kg
same,TD50,[2],1900 mg/kg
same,selectivity ratio,[2],65
"CC(NCc1ccc(NCc2ccc(F)cc2)cc1)C(N)=O.Cl.Cl (stereo not drawn) [FCE 28640, 2-[4-(4-fluorobenzyl)aminobenzyl]aminopropanamide, dihydrochloride]",ED50,[1],26.5 mg/kg
same,TD50,[2],1680 mg/kg
same,selectivity ratio,[2],63
"CC(NCc1ccc(NCc2cccc(Cl)c2)cc1)C(N)=O.Cl.Cl (stereo not drawn) [FCE 28714, 2-[4-(3-chlorobenzyl)aminobenzyl]aminopropanamide, dihydrochloride]",ED50,[1],11.3 mg/kg
same,TD50,[2],663 mg/kg
same,selectivity ratio,[2],59
